In publication PMC7281206, “Cysteine Cathepsins Inhibition Affects Their Expression and Human Renal Cancer Cell Phenotype” (Cancers, 2020):
“Also recorded” adds a separate entry of the source. *: point of attachment. CH2F = FC*

Experiments:
Assay type in all cases: cell-based, human
[1] = test system: LAMP-1 in 769-P cells; test: LAMP-1 protein expression (western blot), 769-P; conditions: 20 μM, 24, 48, 72 h
Procedure: Figure 7 Effect of the peptides on LAMP-1 protein expression: (a) Western blotting analysis of LAMP-1 after treatment with PLVE and VLPE (20 μM) for 24, 48, and 72 h in 769-P cells. (b) Confocal microscopy evaluation of LAMP-1 expression after 48 and 72 h of treatment with PLVE and VLPE (20 μM) in 769-P cells. (c) Western blotting analysis of LAMP-1 after treatment with PLVE and VLPE (20 μM) for 24, 48, and 72 h in A498 cells. (d) Confocal microscopy evaluation of LAMP-1 expression after 48 and 72 h of treatment with PLVE and VLPE (20 μM) in A498 cells. Data are represented as mean ± SD of at least three replicates. Significance was calculated through one-way ANOVA followed by Dunnet’s test. * = p < 0.05, ** = p < 0.01, *** = p < 0.001. Cells were seeded in RPMI containing 10% FBS and cultured for 24 h. Next, 30 µM of inhibitors were added to the culture medium and incubated for 24, 48, and 72 h. Control cells were treated with 0.01% DMSO. At all time points the samples were lysed in 50 mM Tri-HCl (pH 8.0), 100 mM NaCl, 0.5% NP-40, 1% Triton X-100, 1× protease inhibitor cocktail (ThermoFisher, Waltham, MA, USA). The 50 µg of protein lysates were separated by electrophoresis on a 12% SDS-PAGE gel and transferred to the PFDF membranes. […] After an additional wash (three times with PBS), reactive bands were detected by chemiluminescence (Bio-Rad, Irvine, CA, USA). […]

[2] = test system: LAMP-1 in A498 cells; test: LAMP-1 protein expression (western blot, confocal microscopy), A498; conditions: 20 μM
Procedure: Figure 7 Effect of the peptides on LAMP-1 protein expression: (a) Western blotting analysis of LAMP-1 after treatment with PLVE and VLPE (20 μM) for 24, 48, and 72 h in 769-P cells. (b) Confocal microscopy evaluation of LAMP-1 expression after 48 and 72 h of treatment with PLVE and VLPE (20 μM) in 769-P cells. (c) Western blotting analysis of LAMP-1 after treatment with PLVE and VLPE (20 μM) for 24, 48, and 72 h in A498 cells. (d) Confocal microscopy evaluation of LAMP-1 expression after 48 and 72 h of treatment with PLVE and VLPE (20 μM) in A498 cells. Data are represented as mean ± SD of at least three replicates. Significance was calculated through one-way ANOVA followed by Dunnet’s test. * = p < 0.05, ** = p < 0.01, *** = p < 0.001. Cells were seeded in RPMI containing 10% FBS and cultured for 24 h. Next, 30 µM of inhibitors were added to the culture medium and incubated for 24, 48, and 72 h. Control cells were treated with 0.01% DMSO. At all time points the samples were lysed in 50 mM Tri-HCl (pH 8.0), 100 mM NaCl, 0.5% NP-40, 1% Triton X-100, 1× protease inhibitor cocktail (ThermoFisher, Waltham, MA, USA). The 50 µg of protein lysates were separated by electrophoresis on a 12% SDS-PAGE gel and transferred to the PFDF membranes. The expression of cysteine Cts, LAMP-1, E-cadherin, and SNAIL1 were identified by a reaction with specific primary antibodies (CtsB-Ab190077, Abcam, UK; CtsL-Ab95154, Abcam, UK; CtsW Ab191083; LAMP-1- Ab24170, Abcam, UK; SNAIL1 Ab216347, Abcam, UK and e-cadherin-612131, BD Sciences Franklin Lakes, NJ, USA) which were resuspended in 5% non-fat milk in PBST (all Cts 1:3000, LAMP-1, SNAIL1 and E-cadherin 1:1000) and incubated O/N. The next day, the membranes were washed three times with PBST and incubated for 1 h with secondary antibodies (P-GAR Iss (Goat pAb to rabbit IgG (HRP), Abcam, UK or Rabbit Ab to mouse, Abcam, UK; both 1:5000) in 5% non-fat milk in PBST. After an additional wash (three times with PBS), reactive bands were detected by chemiluminescence (Bio-Rad, Irvine, CA, USA). As a loading control, the membranes were incubated with a polyclonal anti-tubulin antibody (1:5000; Ab52866, Abcam, UK) identically. The cells were treated for 48 and 72 h, then were fixed in 4% PFA/PBS for 15 min and permeabilized in 0.25% Triton®X-100 for 10 min. After blocking the non-specific sites in 2% BSA/PBS-T, the immunofluorescence was performed overnight with primary antibody anti-LAMP-1 (1:100, Abcam, Eugene, OR, USA) incubation, followed by incubation with the appropriate fluorophore-labeled secondary antibody Donkey anti-Rabbit IgG (H+L) ReadyProbes™, Alexa Fluor 488 (1:500; ThermoFisher, USA). […]

[3] = test system: 769-P cells (endolysosomal compartment); test: Neutral red assay (endolysosomal integrity), 769-P; conditions: 2.5–250 μM; 48 h
Procedure: Figure S6. The effect of the peptide inhibitors on human 769‐P and A498 renal cancer cell on
lysosomes integrity. (a) 769‐P and (b) A498 cells were treated with increasing doses of Ac‐PLVE‐FMK
(red bars) and Ac‐VLPE‐FMK (blue bars) (2.5–250 μM). NR uptake was measured after 24, 48, and 72
h via MTT assay. (c) LysoTracker red evaluation in 769‐P and (d) A498 cells after 24, 48, and 72 h with
the inhibitors (20 μM). Data represent the mean (± S.D.) of at least three independent experiments,
each performed in triplicate.

Substance	LAMP-1 protein expression [1]	LAMP-1 protein expression ([2]; 72 h)	LAMP-1 protein expression ([2]; first 48 h)	Neutral red uptake [3]
Ac-PLVE-CH2F [Ac-PLVE-FMK]	significantly increased the expression of this lysosomal biomarker at all the considered time points, reaching significant peaks at 48 h of treatment	substantial recovery at 72 h, reaching values slightly higher than CTRL levels	significantly affected during the first 48 h	slightly increasing
Ac-VLPE-CH2F [Ac-VLPE-FMK]	significantly increased the expression of this lysosomal biomarker at all the considered time points, reaching significant peaks at 48 h of treatment; also recorded: more efficient than Ac-PLVE-FMK in increasing the expression of LAMP-1	substantial recovery at 72 h, reaching values slightly higher than CTRL levels	significantly affected during the first 48 h	slightly increasing
